Earlier results as cited in article PMC13015236 (Journal of Pharmaceutical Analysis, 2025).

Experiments:
[1] = patients
[2] = tested on: non-small cell lung cancer (NSCLC); conditions: NSCLC patients

Substance: tiragolumab
- objective response rate (ORR) [1]: 21%

Substance: atezolizumab
- objective response rate (ORR) [1]: 24%
- objective response rate (ORR) [2]: 16.2%
